Measurements from US11168057B2, “Polymorphs and co-crystals of roxadustat” (DR. REDDY'S LABORATORIES LIMITED, priority 2017, dated 2021).

Assay: Storage stability in three ICH conditions for three months (water content, purity, PXRD)
Type: physicochemical
Conditions: for storage stability: all three ICH conditions for three months
Description: The data presented below substantiate that the Form RLP has a high storage stability. Pack-1 (Normal LDPE Bag with 1 g Silica Gel, Packed in a HDPE Container):
Pack-2 (Black Colored LDPE Bag with 1 g Silica Gel, Packed in a HDPE Container):
The data presented below substantiate that the Form RNM has a high storage stability.
Pack-1 (LDPE Bag with 1 g Molecular Sieve, Packed in a HDPE Container):
Pack-2 (LDPE Bag with 1 g Silica Gel, Packed in a HDPE Container): […]

[1] = Pack-1 (Normal LDPE Bag with 1 g Silica Gel, HDPE Container), 2-8° C., 1st Month
[2] = Pack-1 (Normal LDPE Bag with 1 g Silica Gel, HDPE Container), 2-8° C., 3rd Month
[3] = Pack-1 (Normal LDPE Bag with 1 g Silica Gel, HDPE Container), 2-8° C., Initial
[4] = Pack-1 (Normal LDPE Bag with 1 g Silica Gel, HDPE Container), 25 ± 2° C., 60 ± 5% RH, 1st Month
[5] = Pack-1 (Normal LDPE Bag with 1 g Silica Gel, HDPE Container), 25 ± 2° C., 60 ± 5% RH, 3rd Month
[6] = Pack-1 (Normal LDPE Bag with 1 g Silica Gel, HDPE Container), 25 ± 2° C., 60 ± 5% RH, Initial
[7] = Pack-1 (Normal LDPE Bag with 1 g Silica Gel, HDPE Container), 40 ± 2° C., 75 ± 5% RH, 1st Month
[8] = Pack-1 (Normal LDPE Bag with 1 g Silica Gel, HDPE Container), 40 ± 2° C., 75 ± 5% RH, 3rd Month
[9] = Pack-1 (Normal LDPE Bag with 1 g Silica Gel, HDPE Container), 40 ± 2° C., 75 ± 5% RH, Initial
[10] = Pack-2 (Black Colored LDPE Bag with 1 g Silica Gel, HDPE Container), 2-8° C., 1st Month
[11] = Pack-2 (Black Colored LDPE Bag with 1 g Silica Gel, HDPE Container), 2-8° C., 3rd Month
[12] = Pack-2 (Black Colored LDPE Bag with 1 g Silica Gel, HDPE Container), 2-8° C., Initial
[13] = Pack-2 (Black Colored LDPE Bag with 1 g Silica Gel, HDPE Container), 25 ± 2° C., 60 ± 5% RH, 1st Month
[14] = Pack-2 (Black Colored LDPE Bag with 1 g Silica Gel, HDPE Container), 25 ± 2° C., 60 ± 5% RH, 3rd Month
[15] = Pack-2 (Black Colored LDPE Bag with 1 g Silica Gel, HDPE Container), 25 ± 2° C., 60 ± 5% RH, Initial
[16] = Pack-2 (Black Colored LDPE Bag with 1 g Silica Gel, HDPE Container), 40 ± 2° C., 75 ± 5% RH, 1st Month
[17] = Pack-2 (Black Colored LDPE Bag with 1 g Silica Gel, HDPE Container), 40 ± 2° C., 75 ± 5% RH, 3rd Month
[18] = Pack-2 (Black Colored LDPE Bag with 1 g Silica Gel, HDPE Container), 40 ± 2° C., 75 ± 5% RH, Initial
[19] = Pack-1 (LDPE Bag with 1 g Molecular Sieve, HDPE Container), 2-8° C., 1st Month
[20] = Pack-1 (LDPE Bag with 1 g Molecular Sieve, HDPE Container), 2-8° C., 3rd Month
[21] = Pack-1 (LDPE Bag with 1 g Molecular Sieve, HDPE Container), 2-8° C., Initial
[22] = Pack-1 (LDPE Bag with 1 g Molecular Sieve, HDPE Container), 25 ± 2° C., 60 ± 5% RH, 1st Month
[23] = Pack-1 (LDPE Bag with 1 g Molecular Sieve, HDPE Container), 25 ± 2° C., 60 ± 5% RH, 3rd Month
[24] = Pack-1 (LDPE Bag with 1 g Molecular Sieve, HDPE Container), 25 ± 2° C., 60 ± 5% RH, Initial
[25] = Pack-1 (LDPE Bag with 1 g Molecular Sieve, HDPE Container), 40 ± 2° C., 75 ± 5% RH, 1st Month
[26] = Pack-1 (LDPE Bag with 1 g Molecular Sieve, HDPE Container), 40 ± 2° C., 75 ± 5% RH, 3rd Month
[27] = Pack-1 (LDPE Bag with 1 g Molecular Sieve, HDPE Container), 40 ± 2° C., 75 ± 5% RH, Initial
[28] = Pack-2 (LDPE Bag with 1 g Silica Gel, HDPE Container), 2-8° C., 1st Month
[29] = Pack-2 (LDPE Bag with 1 g Silica Gel, HDPE Container), 2-8° C., 3rd Month
[30] = Pack-2 (LDPE Bag with 1 g Silica Gel, HDPE Container), 2-8° C., Initial
[31] = Pack-2 (LDPE Bag with 1 g Silica Gel, HDPE Container), 25 ± 2° C., 60 ± 5% RH, 1st Month
[32] = Pack-2 (LDPE Bag with 1 g Silica Gel, HDPE Container), 25 ± 2° C., 60 ± 5% RH, 3rd Month
[33] = Pack-2 (LDPE Bag with 1 g Silica Gel, HDPE Container), 25 ± 2° C., 60 ± 5% RH, Initial
[34] = Pack-2 (LDPE Bag with 1 g Silica Gel, HDPE Container), 40 ± 2° C., 75 ± 5% RH, 1st Month
[35] = Pack-2 (LDPE Bag with 1 g Silica Gel, HDPE Container), 40 ± 2° C., 75 ± 5% RH, 3rd Month
[36] = Pack-2 (LDPE Bag with 1 g Silica Gel, HDPE Container), 40 ± 2° C., 75 ± 5% RH, Initial

SMILES: Cc1nc(C(=O)NCC(=O)O)c(O)c2ccc(Oc3ccccc3)cc12.O=C(O)[C@@H]1CCCN1 [Form RLP]
- PXRD [1]: No change
- Purity [1]: 99.84%
- Water content [1]: 0.11 % w/w
- PXRD [2]: No change
- Purity [2]: 99.85%
- Water content [2]: 0.14 % w/w
- PXRD [3]: Form RLP
- Purity [3]: 99.84%
- Water content [3]: 0.09 % w/w
- PXRD [4]: No change
- Purity [4]: 99.84%
- Water content [4]: 0.14 % w/w
- PXRD [5]: No change
- Purity [5]: 99.86%
- Water content [5]: 0.12 % w/w
- PXRD [6]: Form RLP
- Purity [6]: 99.84%
- Water content [6]: 0.09 % w/w
- PXRD [7]: No change
- Purity [7]: 99.84%
- Water content [7]: 0.16 % w/w
- PXRD [8]: No change
- Purity [8]: 99.83%
- Water content [8]: 0.21 % w/w
- PXRD [9]: Form RLP
- Purity [9]: 99.84%
- Water content [9]: 0.09 % w/w
- PXRD [10]: No change
- Purity [10]: 99.82%
- Water content [10]: 0.14 % w/w
- PXRD [11]: No change
- Purity [11]: 99.85%
- Water content [11]: 0.16 % w/w
- PXRD [12]: Form RLP
- Purity [12]: 99.84%
- Water content [12]: 0.09 % w/w
- PXRD [13]: No change
- Purity [13]: 99.84%
- Water content [13]: 0.11 % w/w
- PXRD [14]: No change
- Purity [14]: 99.82%
- Water content [14]: 0.13 % w/w
- PXRD [15]: Form RLP
- Purity [15]: 99.84%
- Water content [15]: 0.09 % w/w
- PXRD [16]: No change
- Purity [16]: 99.83%
- Water content [16]: 0.14 % w/w
- PXRD [17]: No change
- Purity [17]: 99.85%
- Water content [17]: 0.11 % w/w
- PXRD [18]: Form RLP
- Purity [18]: 99.84%
- Water content [18]: 0.09 % w/w
- storage stability: stable

SMILES: Cc1nc(C(=O)NCC(=O)O)c(O)c2ccc(Oc3ccccc3)cc12.NC(=O)c1cccnc1 [Form RNM]
- PXRD [19]: No change
- Purity [19]: 99.66%
- Water content [19]: 0.08 % w/w
- PXRD [20]: No change
- Purity [20]: 99.66%
- Water content [20]: 0.08 % w/w
- PXRD [21]: Form RNM
- Purity [21]: 99.57%
- Water content [21]: 0.12 % w/w
- PXRD [22]: No change
- Purity [22]: 99.63%
- Water content [22]: 0.07 % w/w
- PXRD [23]: No change
- Purity [23]: 99.64%
- Water content [23]: 0.08 % w/w
- PXRD [24]: Form RNM
- Purity [24]: 99.57%
- Water content [24]: 0.12 % w/w
- PXRD [25]: No change
- Purity [25]: 99.65%
- Water content [25]: 0.10 % w/w
- PXRD [26]: No change
- Purity [26]: 99.62%
- Water content [26]: 0.07 % w/w
- PXRD [27]: Form RNM
- Purity [27]: 99.57%
- Water content [27]: 0.12 % w/w
- PXRD [28]: No change
- Purity [28]: 99.62%
- Water content [28]: 0.10 % w/w
- PXRD [29]: No change
- Purity [29]: 99.65%
- Water content [29]: 0.08 % w/w
- PXRD [30]: Form RNM
- Purity [30]: 99.57%
- Water content [30]: 0.12 % w/w
- PXRD [31]: No change
- Purity [31]: 99.65%
- Water content [31]: 0.07 % w/w
- PXRD [32]: No change
- Purity [32]: 99.64%
- Water content [32]: 0.11 % w/w
- PXRD [33]: Form RNM
- Purity [33]: 99.57%
- Water content [33]: 0.12 % w/w
- PXRD [34]: No change
- Purity [34]: 99.61%
- Water content [34]: 0.12 % w/w
- PXRD [35]: No change
- Purity [35]: 99.62%
- Water content [35]: 0.07 % w/w
- PXRD [36]: Form RNM
- Purity [36]: 99.57%
- Water content [36]: 0.12 % w/w
- storage stability: stable
